Reference: the supplement of paper PMC10627819
In brackets after ≈: the same amount, converted by molar mass.

Assays:
S. pneumoniae D39V [1] = assay: Bliss interaction score (quartile over a dose matrix) (fitness difference); higher = more antagonism (negative = synergy)
Outline: (§1)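 Growth in each well was taken as OD595 at entry into stationary phase. Dividing by the plate's robust no-drug mean and capping at 1 gave fitness, and single-drug fitness was inferred from the combination data. The Bliss score, observed minus product-expected fitness, is summarised by quartiles over technical, biological and donor/recipient replicates.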

S. aureus Newman [2] = assay: as above
Outline: as §1

B. subtilis 168 [3] = assay: as above
Outline: as §1

S. aureus DSM 20231 [4] = assay: as above
Outline: as §1

S. pneumoniae D39V [5] = assay: fitness (endpoint OD595 vs no drug) (fraction); higher = more growth
Outline: (§2)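 Volumes were 30 µl per well, or 55 µl for S. pneumoniae, in 384-well plates inoculated at OD595 0.01. Media were TSB, LB Lennox or CY at 37 °C, and OD595 was read every 30 min for 14 h with first-reading background subtraction. Fitness is the ratio of optical density at stationary-phase entry to the robust mean of no-drug controls. That ratio is capped at 1.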

S. aureus Newman [6] = assay: as above
Outline: as §2

B. subtilis 168 [7] = assay: as above
Outline: as §2

S. aureus DSM 20231 [8] = assay: as above
Outline: as §2

S. pneumoniae D39V [9] = system: S. pneumoniae D39V
S. aureus Newman [10] = system: S. aureus Newman
S. aureus DSM 20231 [11] = system: S. aureus DSM 20231
B. subtilis 168 [12] = system: B. subtilis 168
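Wherever Bliss interaction score (quartile over a dose matrix) is given: first quartile when negative (synergy) and third quartile when positive (antagonism).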

Cn1c2cccc(=O)c-2nc2ccccc21 [Pyocyanin] + CC1=C\[C@@H](O)CC(=O)Cc2nc(co2)C(=O)N2CCC=C2C(=O)O[C@H](C(C)C)[C@H](C)/C=C/C(=O)NC\C=C\1 [Virginiamycin M1]
Details | Bliss interaction score
B. subtilis 168 [3] | -0.0635
S. aureus DSM 20231 [4] | -0.0636
S. aureus Newman [2] | 0.0515
S. pneumoniae D39V [1] | 0.0505

fitness, one replicate
Details | partner 0.15 µg/mL | partner 0.3 µg/mL | partner 0.5 µg/mL | partner 1 µg/mL | partner 2 µg/mL
S. aureus DSM 20231 [8], first compound 1.25 µg/mL | – | – | 0.913 | 0.882 | –
S. aureus DSM 20231 [8], first compound 2.5 µg/mL | – | – | 0.816 | 0.787 | –
S. aureus DSM 20231 [8], first compound 5 µg/mL | – | – | 0.556 | 0.616 | –
S. aureus Newman [6], first compound 1.25 µg/mL | – | – | 0.921 | ≥ 1 | 0.92
S. aureus Newman [6], first compound 2.5 µg/mL | – | – | 0.939 | 0.965 | 0.952
S. aureus Newman [6], first compound 5 µg/mL | – | – | 0.844 | 0.885 | 0.734
S. pneumoniae D39V [5], first compound 0.325 µg/mL | ≥ 1 | 0.988 | – | – | –
S. pneumoniae D39V [5], first compound 0.65 µg/mL | ≥ 1 | 0.994 | – | – | –
S. pneumoniae D39V [5], first compound 1.3 µg/mL | 0.935 | 0.859 | 0.878 | 0.815 | –

fitness
Details | B. subtilis 168 [7] | S. aureus DSM 20231 [8] | S. aureus Newman [6] | S. pneumoniae D39V [5]
first compound 0.325 µg/mL, partner 0.5 µg/mL | – | – | – | ≥ 1
first compound 0.325 µg/mL, partner 1 µg/mL | – | – | – | ≥ 1
first compound 0.325 µg/mL, partner 2 µg/mL | – | – | – | 0.969
first compound 0.65 µg/mL, partner 0.5 µg/mL | – | – | – | ≥ 1
first compound 0.65 µg/mL, partner 1 µg/mL | – | – | – | ≥ 1
first compound 0.65 µg/mL, partner 2 µg/mL | – | – | – | 0.992
first compound 1.25 µg/mL, partner 0.0625 µg/mL | 0.924 | 0.883 | 0.823 | –
first compound 1.25 µg/mL, partner 0.125 µg/mL | 0.89 | 0.923 | 0.833 | –
first compound 1.25 µg/mL, partner 0.25 µg/mL | 0.885 | 0.808 | 0.823 | –
first compound 1.3 µg/mL, partner 2 µg/mL | – | – | – | 0.828
first compound 2.5 µg/mL, partner 0.0625 µg/mL | 0.862 | 0.854 | 0.752 | –
first compound 2.5 µg/mL, partner 0.125 µg/mL | 0.84 | 0.86 | 0.766 | –
first compound 2.5 µg/mL, partner 0.25 µg/mL | 0.857 | 0.89 | 0.776 | –
first compound 5 µg/mL, partner 0.0625 µg/mL | 0.734 | 0.562 | 0.369 | –
first compound 5 µg/mL, partner 0.125 µg/mL | 0.741 | 0.589 | 0.422 | –
first compound 5 µg/mL, partner 0.25 µg/mL | 0.758 | 0.621 | 0.352 | –

CC[C@H]1OC(=O)[C@H](C)C(=O)[C@H](C)[C@@H](O[C@@H]2O[C@H](C)C[C@H](N(C)C)[C@H]2O)[C@](C)(OC)C[C@@H](C)C(=O)[C@H](C)[C@H]2N(CCCCn3cnc(-c4cccnc4)c3)C(=O)O[C@]12C [Telithromycin]
Details | MIC [µg/mL]
S. aureus DSM 20231 [11] | 0.15 (≈ 0.185 µM)
S. aureus Newman [10] | 0.15 (≈ 0.185 µM)
S. pneumoniae D39V [9] | 0.04 (≈ 0.0493 µM)

CC[C@H]1OC(=O)[C@H](C)[C@@H](O[C@H]2C[C@@](C)(OC)[C@@H](O)[C@H](C)O2)[C@H](C)[C@@H](O[C@@H]2O[C@H](C)C[C@H](N(C)C)[C@H]2O)[C@](C)(O)C[C@@H](C)CN(C)[C@H](C)[C@@H](O)[C@]1(C)O [Azithromycin]
Details | MIC [µg/mL]
B. subtilis 168 [12] | 2 (≈ 2.67 µM)
S. aureus DSM 20231 [11] | 0.556 (≈ 0.742 µM)
S. aureus Newman [10] | 0.5 (≈ 0.668 µM)
S. pneumoniae D39V [9] | 2 (≈ 2.67 µM)

fitness
Details | 0.125 µg/mL | 0.25 µg/mL | 0.5 µg/mL | 1 µg/mL | 2 µg/mL
B. subtilis 168 [7] | – | 0.891 | 0.869 | 0.699 | 0.0641
S. aureus DSM 20231 [8] | 0.994 | 0.914 | 0.508 | 0.834 | –
S. aureus Newman [6] | 0.93 | 0.901 | 0.706 | – | –
S. pneumoniae D39V [5] | – | 0.524 | 0.323 | 0.096 | –

Cn1c2cccc(=O)c-2nc2ccccc21 [Pyocyanin] + CN(N=O)C(=O)N[C@@H](C=O)[C@@H](O)[C@H](O)[C@H](O)CO [Streptozotocin]
Details | Bliss interaction score
B. subtilis 168 [3] | -0.0597
S. aureus DSM 20231 [4] | 0.0692
S. aureus Newman [2] | -0.0417
S. pneumoniae D39V [1] | -0.0715

fitness
Details | partner 0.15 µg/mL | partner 0.3 µg/mL | partner 0.6 µg/mL | partner 1.2 µg/mL | partner 2.4 µg/mL | partner 4.8 µg/mL
S. aureus DSM 20231 [8], first compound 1.25 µg/mL | 0.836 | 0.852 | 0.711 | – | – | –
S. aureus DSM 20231 [8], first compound 2.5 µg/mL | 0.803 | 0.772 | 0.676 | – | – | –
S. aureus DSM 20231 [8], first compound 5 µg/mL | 0.626 | 0.617 | 0.517 | – | – | –
S. aureus Newman [6], first compound 1.25 µg/mL | 0.788 | 0.633 | 0.494 | – | – | –
S. aureus Newman [6], first compound 2.5 µg/mL | 0.695 | 0.591 | 0.385 | – | – | –
S. aureus Newman [6], first compound 5 µg/mL | 0.265 | 0.249 | 0.167 | – | – | –
S. pneumoniae D39V [5], first compound 0.325 µg/mL | – | – | – | 0.951 | 0.912 | 0.928
S. pneumoniae D39V [5], first compound 0.65 µg/mL | – | – | – | 0.973 | 0.964 | 0.965

fitness, one replicate
Details | partner 0.15 µg/mL | partner 0.3 µg/mL | partner 0.6 µg/mL | partner 1.2 µg/mL | partner 2.4 µg/mL | partner 4.8 µg/mL
B. subtilis 168 [7], first compound 1.25 µg/mL | 0.99 | 0.918 | 0.96 | – | – | –
B. subtilis 168 [7], first compound 2.5 µg/mL | 0.777 | 0.903 | 0.873 | – | – | –
B. subtilis 168 [7], first compound 5 µg/mL | 0.687 | 0.729 | 0.777 | – | – | –
S. pneumoniae D39V [5], first compound 1.3 µg/mL | – | – | – | 0.626 | 0.683 | 0.783
